Consider 17 compounds from patent US8008487B2, “Substituted thieno[2,3-D]pyrimidines as fungicides” (priority 2004, dated 2011).

Holding throughout (format): in vivo
One assay relates to Colletotricum lagenarium. The assay is described as follows: Cucumber Anthracnose (COLLLA), whole-plant fungicide test. The settings on record: one-day protectant test; for pest or weed control at 200 ppm: foliar.
For the next assay, the system named is Erysiphe cichoracaerum. The experiment in a line: Cucumber Powdery Mildew (ERYSCI), whole-plant fungicide test. Particulars: 200 ppm on foliage, one-day protectant test; for pest or weed control at 200 ppm: Erysiphe, foliar, 24 h, read-out: ERYSCI percent control of disease.
Another assay has as its system Leptosphaeria nodorum. The experiment in a line: Glume Blotch of Wheat (LEPTNO), whole-plant fungicide test. The settings on record: Parastagonospora nodorum, read-out: LEPTNO percent control of disease; for pest or weed control at 200 ppm: foliar, 24 h, 200 ppm on foliage, one-day protectant test.
Another assay has as its system Phytophthora infestans. The experiment in a line: whole plant or invertebrate. Particulars: for pest or weed control at 200 ppm: foliar, read-out: PHYTIN percent control of disease, 200 ppm on foliage, tomato, one-day protectant test.
Assay [1] relates to Puccinia recondita tritici. The assay is described as follows: Leaf Rust of Wheat (PUCCRT), whole-plant fungicide test. Particulars: 200 ppm on foliage, one-day protectant test; for pest or weed control at 200 ppm: Puccinia recondita, foliar, 24 h, read-out: PUCCRT percent control of disease.
In another assay the test system is Magnaporthe grisea. The assay is described as follows: whole plant or invertebrate. Particulars: for pest or weed control at 200 ppm: foliar, read-out: PYRIOR percent control of disease, 200 ppm on foliage, rice, one-day protectant test.
The next assay has as its system Septoria tritici. The experiment in a line: Speckled Leaf Blotch of Wheat (SEPTTR), whole-plant fungicide test. The settings on record: Zymoseptoria tritici, read-out: SEPTTR percent control of disease; for pest or weed control at 100 ppm: 100 ppm (footnote a); for pest or weed control at 75 ppm: 75 ppm (footnote d).
The mark [2] stands for this setting: Cucumis sativus, 24 h, 200 ppm on foliage, read-out: COLLLA percent control of disease.
The mark [3] stands for this setting: Phytophthora infestans, in Solanum lycopersicum, 24 h.
Setting [4] is: Pyricularia oryzae, in Oryza sativa, 24 h.

Each structure is given as a SMILES string. Like-named read-outs stand apart in the source and are kept apart here.

In the case of `FC(F)(F)COc1ccc(CCNc2ncnc3scc(Cl)c23)cn1` [Compound 5a], the pest or weed control at 200 ppm in the assay on Colletotricum lagenarium (setting [2]) lay within 50 to 79%; in the assay with Erysiphe cichoracaerum, 80 to 100%; in the assay on Leptosphaeria nodorum it was 80 to 100%; in the assay with Phytophthora infestans (setting [3]), 80 to 100%; in assay [1] it was 80 to 100%; in the assay on Magnaporthe grisea (setting [4]) it was 80 to 100%. The pest or weed control at 100 ppm in the assay with Septoria tritici (24 h, one-day protectant test) is 80 to 100%.

Take `CC(=O)COc1ccc(CCNc2ncnc3scc(Cl)c23)cc1` [Compound 6a]: the pest or weed control at 200 ppm was 50 to 79% in the assay on Colletotricum lagenarium (setting [2]); 0 to 49% with Erysiphe cichoracaerum; 50 to 79% in the assay on Leptosphaeria nodorum; 80 to 100% in the assay on Phytophthora infestans (setting [3]); 80 to 100% in assay [1]; 80 to 100% with Magnaporthe grisea (setting [4]). The pest or weed control at 75 ppm with Septoria tritici (24 h, one-day protectant test) was 0 to 49%.

For `O=C(Oc1ccc(CCNc2ncnc3scc(Cl)c23)cc1)C1(F)C(F)(F)C(F)(F)C(F)(F)C(F)(F)C1(F)F` [Compound 9a, 1,2,2,3,3,4,4,5,5,6,6-undecafluoroclohexanecarboxylic Acid 4-[2-(5-chlorothieno[2,3-d]pyrimidin-4-ylamino)ethyl]phenyl Ester], the pest or weed control at 200 ppm in the assay on Colletotricum lagenarium (setting [2]) was 0 to 49%; with Erysiphe cichoracaerum, 0 to 49%; with Leptosphaeria nodorum it was 0 to 49%; with Phytophthora infestans (setting [3]), 0 to 49%; in assay [1] it was 80 to 100%; in the assay on Magnaporthe grisea (setting [4]), 80 to 100%. Also, the pest or weed control at 75 ppm in the assay on Septoria tritici (24 h, one-day protectant test) is 80 to 100%.

As for `CC(C)(C)OC(=O)Nc1ccc(CCNc2ncnc3scc(Cl)c23)cc1` [Compound 10a, {4-[2-(5-chlorothieno[2,3-d]pyrimidin-4-ylamino)ethyl]phenyl}carbamic Acid t-butyl Ester], the pest or weed control at 200 ppm (in the assay with Colletotricum lagenarium (setting [2]); in the assay with Erysiphe cichoracaerum; in the assay on Leptosphaeria nodorum; in assay [1]) was 0 to 49% throughout. Moreover, the pest or weed control at 8.3 ppm in the assay on Magnaporthe grisea (Pyricularia oryzae, in Oryza sativa, 24 h, read-out: PYRIOR percent control of disease, 8.3 ppm (footnote c), rice, one-day protectant test) lay in the range of 80 to 100%. The pest or weed control at 75 ppm in the assay with Septoria tritici (24 h, one-day protectant test) is 80 to 100%.

`OCC(Nc1ncnc2scc(Cl)c12)c1ccccc1` (stereo not shown) [Compound 69]: the “COLLLA percent control of disease” value with Colletotricum lagenarium (200 ppm on foliage) is “* (* is 0-49 percent control of disease)”. Besides, in the assay on Erysiphe cichoracaerum, the “ERYSCI percent control of disease” value is “* (* is 0-49 percent control of disease)”. Besides, the pest or weed control at 100 ppm is 50 to 79% with Leptosphaeria nodorum (48 h, 100 ppm (footnote a), two-day curative test (footnote b)) and 50 to 79% in the assay on Septoria tritici (48 h, two-day curative test (footnote b)). Moreover, the “PHYTIN percent control of disease” value with Phytophthora infestans (200 ppm on foliage, tomato, one-day protectant test) is listed as “* (* is 0-49 percent control of disease)”. The “PUCCRT percent control of disease” value in assay [1] was “* (* is 0-49 percent control of disease)”. Further, the “PYRIOR percent control of disease” value with Magnaporthe grisea (200 ppm on foliage, rice, one-day protectant test) is “* (* is 0-49 percent control of disease)”.

For the compound `CC(Nc1ncnc2scc(Cl)c12)c1ccc(OCC(F)F)nc1` (stereo not shown) [Compound 74], the pest or weed control at 200 ppm was in the range of 80 to 100% in the assay with Colletotricum lagenarium (setting [2]); 80 to 100% with Erysiphe cichoracaerum; 80 to 100% in the assay on Leptosphaeria nodorum; 0 to 49% in the assay on Phytophthora infestans (setting [3]); 80 to 100% in assay [1]; 80 to 100% in the assay on Magnaporthe grisea (setting [4]).

For the compound `CC(Nc1ncnc2scc(Cl)c12)c1ccc(OCCF)nc1` (stereo not shown) [Compound 75], the pest or weed control at 200 ppm is 50 to 79% with Colletotricum lagenarium (setting [2]); 80 to 100% in the assay on Erysiphe cichoracaerum; 0 to 49% in the assay on Leptosphaeria nodorum; 0 to 49% in the assay with Phytophthora infestans (setting [3]); 80 to 100% in assay [1]; 80 to 100% in the assay on Magnaporthe grisea (setting [4]).

For `CCC(Nc1ncnc2scc(Cl)c12)c1ccc(OC)nc1` (stereo not shown) [Compound 79], the pest or weed control at 200 ppm in the assay on Colletotricum lagenarium (setting [2]) fell in the range of 0 to 49%; in the assay on Erysiphe cichoracaerum, 0 to 49%; in the assay on Leptosphaeria nodorum it was 0 to 49%; in the assay with Phytophthora infestans (setting [3]), 0 to 49%; in assay [1] it was 80 to 100%; in the assay with Magnaporthe grisea (setting [4]), 80 to 100%.

As for `CC(Nc1ncnc2scc(Cl)c12)c1cccnc1Cl` (stereo not shown) [Compound 80], the pest or weed control at 200 ppm with Colletotricum lagenarium (setting [2]) lay in the range of 50 to 79%; in the assay with Erysiphe cichoracaerum, 80 to 100%; with Leptosphaeria nodorum, 0 to 49%; in the assay with Phytophthora infestans (setting [3]), 0 to 49%; in assay [1], 80 to 100%; in the assay with Magnaporthe grisea (setting [4]), 80 to 100%.

For the compound `COc1ccc(OCC2CC2C(C)Nc2ncnc3scc(Cl)c23)cc1` (stereo not shown) [Compound 86], the pest or weed control at 200 ppm is 80 to 100% in the assay with Colletotricum lagenarium (setting [2]); 80 to 100% in the assay with Erysiphe cichoracaerum; 50 to 79% in the assay on Leptosphaeria nodorum; 0 to 49% with Phytophthora infestans (setting [3]); 80 to 100% in assay [1]; 80 to 100% in the assay on Magnaporthe grisea (setting [4]).

`CC(Nc1ncnc2scc(Cl)c12)C1CC1COCC(F)(F)F` (stereo not shown) [Compound 87]: the pest or weed control at 200 ppm fell in the range of 0 to 49% in the assay on Colletotricum lagenarium (setting [2]); 80 to 100% with Erysiphe cichoracaerum; 0 to 49% with Leptosphaeria nodorum; 0 to 49% with Phytophthora infestans (setting [3]); 80 to 100% in assay [1]; 80 to 100% with Magnaporthe grisea (setting [4]).

Take `COc1ccc(C(C)Nc2ncnc3scc(SC)c23)cc1` (stereo not shown) [Compound 88, 5-Methylthio-N-[1-(4-methoxyphenyl)ethyl]thieno[2,3-d]pyrimidin-4-amine]: the pest or weed control at 200 ppm in the assay with Colletotricum lagenarium (setting [2]) lay in the range of 0 to 49%; in the assay on Erysiphe cichoracaerum it was 0 to 49%; in the assay with Leptosphaeria nodorum, 0 to 49%; with Phytophthora infestans (setting [3]), 0 to 49%; in assay [1] it was 80 to 100%; in the assay on Magnaporthe grisea (setting [4]) it was 80 to 100%.

For `COc1ccc(C(C)Nc2ncnc3scc(S(C)(=O)=O)c23)cc1` (stereo not shown) [Compound 89, 5-Methanesulfonyl-N-[1-(4-methoxyphenyl)ethyl]thieno[2,3-d]pyrimidin-4-amine], the pest or weed control at 200 ppm in the assay on Colletotricum lagenarium (setting [2]) lay in the range of 0 to 49%; in the assay with Erysiphe cichoracaerum, 0 to 49%; with Leptosphaeria nodorum it was 0 to 49%; in the assay on Phytophthora infestans (setting [3]) it was 0 to 49%; in assay [1], 0 to 49%; with Magnaporthe grisea (setting [4]), 50 to 79%.

Regarding `CC(Nc1ncnc2scc(Cl)c12)c1cnc(OCC(F)(F)F)s1` (stereo not shown) [Compound 90], the pest or weed control at 200 ppm lay within 0 to 49% in the assay with Colletotricum lagenarium (setting [2]); 80 to 100% with Erysiphe cichoracaerum; 50 to 79% in the assay with Leptosphaeria nodorum; 0 to 49% in the assay on Phytophthora infestans (setting [3]); 80 to 100% in assay [1]; 80 to 100% in the assay with Magnaporthe grisea (setting [4]).

As for `CC(Nc1ncnc2scc(Cl)c12)c1ccc(C(C)(C)C)cc1` (stereo not shown) [Compound 91], the pest or weed control at 100 ppm in the assay with Colletotricum lagenarium (Cucumis sativus, 24 h, 100 ppm (footnote a), read-out: COLLLA percent control of disease) was 50 to 79%; in the assay with Phytophthora infestans (Phytophthora infestans, in Solanum lycopersicum, 24 h, read-out: PHYTIN percent control of disease, 100 ppm (footnote a), tomato, one-day protectant test) it was 50 to 79%. Moreover, the pest or weed control at 200 ppm (in the assay with Erysiphe cichoracaerum; in the assay on Leptosphaeria nodorum; in assay [1]; with Magnaporthe grisea (setting [4])) was 80 to 100% throughout.

As for `Clc1csc2ncnc(N3CCOCC3c3ccccc3)c12` (stereo not shown) [Compound 92], the pest or weed control at 200 ppm was in the range of 0 to 49% with Colletotricum lagenarium (setting [2]); 0 to 49% in the assay with Erysiphe cichoracaerum; 0 to 49% with Leptosphaeria nodorum; 0 to 49% in the assay on Phytophthora infestans (setting [3]); 0 to 49% in assay [1]; 80 to 100% in the assay on Magnaporthe grisea (setting [4]).

For `Clc1csc2ncnc(N3CCCCC3c3ccccc3)c12` (stereo not shown) [Compound 93], the pest or weed control at 200 ppm in the assay with Colletotricum lagenarium (setting [2]) lay in the range of 0 to 49%; in the assay on Erysiphe cichoracaerum, 0 to 49%; in the assay with Leptosphaeria nodorum it was 0 to 49%; in the assay on Phytophthora infestans (setting [3]), 0 to 49%; in assay [1] it was 0 to 49%; in the assay with Magnaporthe grisea (setting [4]), 80 to 100%.
